The results in this text go back to ChEMBL document CHEMBL4359921, “Discovery of potent 4-aminoquinoline hydrazone inhibitors of NRH:quinoneoxidoreductase-2 (NQO2)” (Eur J Med Chem, 2019).

Test [1] has as its system SK-OV-3. The test can be described thus: Cytotoxicity against human SKOV3 cells assessed as reduction in cell viability incubated for 24 hrs by MTT assay. The settings on record: SK-OV-3, 24 h. (Formazan colour is commonly taken as a measure of viable cells.)
Test [2] deals with TOV112D. The test can be described thus: Cytotoxicity against human TOV112D cells transfected with empty vector assessed as reduction in cell viability incubated for 96 hrs by MTT assay.
The test system of test [3] is SK-OV-3. Kind of test: Cytotoxicity against human SKOV3 cells transfected with non-targeted vector assessed as reduction in cell viability incubated for 96 hrs in presence of doxycycline by MTT assay. The settings on record: SK-OV-3, 96 h.
Test [4] relates to SK-OV-3. The test can be described thus: Cytotoxicity against human SKOV3 cells transfected with shRNA assessed as reduction in cell viability incubated for 96 hrs in presence of doxycycline by MTT assay. The settings on record: SK-OV-3, 96 h.
Test [5] has as its system SK-OV-3. Kind of test: Cytotoxicity against human SKOV3 cells assessed as reduction in cell viability incubated for 96 hrs by MTT assay. The settings on record: SK-OV-3, 96 h.
Test [6] has as its system TOV112D. The test can be described thus: Cytotoxicity against human TOV112D cells expressing NQO2 assessed as reduction in cell viability incubated for 96 hrs by MTT assay.
The target of test [7] is NAD(P)H dehydrogenase [quinone] 1 (Homo sapiens, UniProt P15559). Kind of test: Inhibition of recombinant human NQO1 expressed in Escherichia coli using DCPIP as substrate by spectrophotometry.

SMILES strings stand for the structures. pIC50: −log10 of the molar value.

NAD(P)H dehydrogenase [quinone] 1, sequence (P15559 whole entry): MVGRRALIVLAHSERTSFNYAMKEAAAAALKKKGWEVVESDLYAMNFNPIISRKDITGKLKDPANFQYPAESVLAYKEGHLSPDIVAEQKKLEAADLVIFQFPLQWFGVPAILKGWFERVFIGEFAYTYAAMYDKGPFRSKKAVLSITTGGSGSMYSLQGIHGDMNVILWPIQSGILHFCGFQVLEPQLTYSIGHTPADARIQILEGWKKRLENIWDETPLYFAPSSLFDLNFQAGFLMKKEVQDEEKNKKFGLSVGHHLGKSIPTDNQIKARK

Broadly, the pIC50 is the IC50 on a negative log10 scale, so that one unit is a factor of ten. On to `COc1ccc2nc(C)cc(N/N=C/c3cccc(OC)c3O)c2c1`, for which the pIC50 was 5.68 in test [1]; 5.47 in test [2]; 5.57 in test [3]; 5.56 in test [4]; 5.70 in test [5]; 5.42 in test [6].
`COc1ccc2nc(C)cc(N/N=C/c3ccccc3)c2c1`: the results for the pIC50 in test [1] and in test [5] were 5.75 and 5.76, respectively.
Regarding `COc1ccc2nc(C)cc(N/N=C/c3ccc(F)cc3)c2c1`, the pIC50 in test [1] and in test [5] was 5.64 throughout.
Regarding `COc1ccc2nc(C)cc(N/N=C/Cc3ccccc3)c2c1`, the pIC50 is 4.30 in test [1]; 4.37 in test [2]; 4.35 in test [3]; 4.30 in test [4]; 4.39 in test [5]; 4.39 in test [6]. The IC50 result in test [7] is “Not Active”.
`COc1ccc2nc(C)cc(N/N=C/c3ccc(O)cc3)c2c1`: the pIC50 in test [1] was 5.56; in test [2] it was 5.50; in test [3], 5.54; in test [4] it was 5.59; in test [5], 5.64; in test [6], 5.53.
With `COc1ccc2nc(-c3ccccc3)cc(N/N=C/c3c[nH]cn3)c2c1`, the pIC50 in test [1] is 5.61; in test [7] (read-out: IC50), 6.37; in test [5], 5.66.
As to `COc1ccc2nc(C)cc(NNC(=O)c3ccc(F)cc3)c2c1`, the pIC50 was below 4.00 in test [1]; 4.21 in test [2]; below 4.00 in test [3]; below 4.00 in test [4]; below 4.00 in test [5]; 4.24 in test [6]. Further, the IC50 result in test [7] is “Not Active”.
On to `COc1ccc2nc(-c3ccccc3)cc(N/N=C/c3cccnc3)c2c1`, for which the pIC50 in test [1] was 5.55; in test [5], 5.66. In addition, in test [7], the IC50 result is recorded as “Not Active”.
For `COc1ccc2nc(-c3ccccc3)cc(N/N=C/c3cccc(OC)c3O)c2c1`, in that order: 5.54, 5.56 and “Not Active”.
With `COc1ccc2nc(C)cc(NN)c2c1`, the pIC50 is 4.08 in test [1] and 4.39 in test [5].
For `COc1ccc2nc(-c3ccccc3)cc(N/N=C/c3ccc(N(C)C)cc3)c2c1`, in that order: 5.80 and 5.82.
With `COc1ccc2nc(C)cc(NNC(=O)c3ccccc3)c2c1`, the pIC50 in test [1] is 4.17; in test [5], 4.36.
In the case of `COc1ccc2nc(C)cc(N/N=C/c3ccc(C(=O)O)cc3)c2c1`, the negative-log IC50 (pIC50) in test [1] is below 4.00; in test [2], below 4.00; in test [3], 4.19; in test [4], 4.21; in test [5], 4.15; in test [6] it was below 4.00. In addition, the IC50 entry in test [7] is reported as “Not Active”.
Regarding `COc1ccc2nc(C)cc(N/N=C/c3c[nH]cn3)c2c1`, the pIC50 in test [1] is 4.49; in test [2], 5.44; in test [3] it was 5.16; in test [4] it was 5.17; in test [5] it was 5.38; in test [6], 5.43.
Consider `Nc1c2ccccc2nc2ccccc12` [AMINACRINE], for which the pIC50 in test [1] was 5.27; in test [2], 5.44; in test [3] it was 5.60; in test [4], 5.59; in test [5], 5.56; in test [6], 5.50.
As to `Oc1ccc(/C=C/c2cc(O)cc(O)c2)cc1` [RESVERATROL], the pIC50 was 4.04 in test [1]; 4.97 in test [2]; 4.54 in test [3]; 4.40 in test [4]; 4.44 in test [5]; 4.96 in test [6].
